Source: US11945822B2, “Pyrazolo-triazine and/or pyrazolo-pxrimidine derivatives as selective inhibitor of cyclin dependent kinase” (QURIENT CO., LTD., priority 2018, dated 2024)

Target: T1, CDK7/Cyclin H/MNAT1 (Homo sapiens, UniProt P50613)
T1 construct: purchased Invitrogen PR6749B
Experiment: Enzymatic assay for CDK7 (FRET based LANCE Ultra kinase assay)
Format: biochemical
Details: CDK7 over CDK1
Experimental: (§1) Enzymatic Binding Assay Protocol for CDK1, CDK2, CDK5 and CDK7
Inhibition activity of the respective compound on CDK kinase under Km value of ATP was tested in FRET based The LANCE® Ultra kinase assay (Perkin Elmer), which uses a ULight™-labeled peptide substrate and an appropriate Europium-labeled anti-phospho-antibody. […] After 1 min centrifugation at 1000 rpm, Purified CDKs/Cyclin complex were added following concentrations respectively. […] Data was analyzed using XL Fit software.

T1 sequence (P50613 whole entry): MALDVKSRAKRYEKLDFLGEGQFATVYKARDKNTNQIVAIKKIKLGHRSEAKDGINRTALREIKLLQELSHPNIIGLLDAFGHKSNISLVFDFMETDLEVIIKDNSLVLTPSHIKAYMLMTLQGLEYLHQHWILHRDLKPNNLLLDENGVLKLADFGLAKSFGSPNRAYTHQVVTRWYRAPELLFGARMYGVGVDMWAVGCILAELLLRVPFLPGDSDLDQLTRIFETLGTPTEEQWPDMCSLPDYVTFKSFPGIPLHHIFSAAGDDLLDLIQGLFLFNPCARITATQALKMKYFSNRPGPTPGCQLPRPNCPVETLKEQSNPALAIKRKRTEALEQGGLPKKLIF
T1 sequence (P51946 whole entry partner): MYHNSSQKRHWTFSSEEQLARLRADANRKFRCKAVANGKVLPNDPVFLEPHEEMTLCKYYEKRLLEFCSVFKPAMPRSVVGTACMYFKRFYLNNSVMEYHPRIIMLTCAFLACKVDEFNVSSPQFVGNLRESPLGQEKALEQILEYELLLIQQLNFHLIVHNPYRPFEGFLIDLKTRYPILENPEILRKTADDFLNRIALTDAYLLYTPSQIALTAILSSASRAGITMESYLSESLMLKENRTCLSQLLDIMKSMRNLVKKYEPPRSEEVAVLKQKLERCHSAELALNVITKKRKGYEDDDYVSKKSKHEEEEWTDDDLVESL
T1 sequence (P51948 whole entry partner): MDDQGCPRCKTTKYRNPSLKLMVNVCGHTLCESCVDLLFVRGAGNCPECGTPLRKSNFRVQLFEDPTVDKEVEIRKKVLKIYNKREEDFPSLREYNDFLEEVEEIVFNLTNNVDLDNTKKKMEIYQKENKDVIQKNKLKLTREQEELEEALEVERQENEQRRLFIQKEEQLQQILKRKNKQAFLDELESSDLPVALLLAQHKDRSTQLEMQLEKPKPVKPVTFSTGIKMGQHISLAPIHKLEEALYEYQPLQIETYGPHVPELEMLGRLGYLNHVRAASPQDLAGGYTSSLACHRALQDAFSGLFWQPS

Structure (SMILES)	CDK1/CDK7: Selectivity of CDK7 inhibition over CDK1 inhibition
CC(C)c1cnn2c(NCc3ccccc3-n3cccn3)nc(Nc3cccc(OC4CCNC4)c3)nc12 (racemic) [Compound 164]	B (B=less than 200 fold, but greater than 20 fold)
CC(C)c1cnn2c(NCc3cccc4ccncc34)nc(N3CCC(N)CC3)nc12 [Compound 31]	B (B=less than 200 fold, but greater than 20 fold)
CC(C)c1cnn2c(NCc3ccccc3-n3cc4cc(NS(C)(=O)=O)ccc4n3)nc(N3CCC(N)CC3)nc12 [Compound 158]	B (B=less than 200 fold, but greater than 20 fold)

Same assay, conditions: CDK7 over CDK2

Structure (SMILES)	CDK2/CDK7: Selectivity of CDK7 inhibition over CDK2 inhibition
CC(C)c1cnn2c(NCc3ccccc3-n3cccn3)nc(Nc3cccc(OC4CCNC4)c3)nc12 (racemic) [Compound 164]	B (B=less than 200 fold, but greater than 20 fold)
CC(C)c1cnn2c(NCc3cccc4ccncc34)nc(N3CCC(N)CC3)nc12 [Compound 31]	B (B=less than 200 fold, but greater than 20 fold)
CC(C)c1cnn2c(NCc3ccccc3-n3cc4cc(NS(C)(=O)=O)ccc4n3)nc(N3CCC(N)CC3)nc12 [Compound 158]	B (B=less than 200 fold, but greater than 20 fold)

Same assay, conditions: CDK7 over CDK5

Structure (SMILES)	CDK5/CDK7: Selectivity of CDK7 inhibition over CDK5 inhibition
CC(C)c1cnn2c(NCc3ccccc3-n3cccn3)nc(Nc3cccc(OC4CCNC4)c3)nc12 (racemic) [Compound 164]	B (B=less than 200 fold, but greater than 20 fold)
CC(C)c1cnn2c(NCc3cccc4ccncc34)nc(N3CCC(N)CC3)nc12 [Compound 31]	C (C=less than 20 fold)
CC(C)c1cnn2c(NCc3ccccc3-n3cc4cc(NS(C)(=O)=O)ccc4n3)nc(N3CCC(N)CC3)nc12 [Compound 158]	B (B=less than 200 fold, but greater than 20 fold)

Same assay, conditions: read-out: CDK7 enzymatic activity (IC50 range)

IC50 [µM]	Structure (SMILES)
< 0.1	CC(C)c1cnn2c(NCc3ccccc3-n3cccn3)nc(Nc3cccc(OC4CCNC4)c3)nc12 (racemic) [Compound 164]
< 0.1	CC(C)c1cnn2c(NCc3cccc4ccncc34)nc(N3CCC(N)CC3)nc12 [Compound 31]
< 0.1	CC(C)c1cnn2c(NCc3ccccc3-n3cc4cc(NS(C)(=O)=O)ccc4n3)nc(N3CCC(N)CC3)nc12 [Compound 158]

Test system: MV4-11
Experiment: Cellular MV4-11 viability assay (CellTiter-Glo, 72 hours)
Format: cell-based
Details: Homo sapiens
Experimental: (§2) All cell lines were routinely tested for mycoplasma.
(§3) The effect of the CDK7 inhibitor to inhibit the growth of target cancer cells was evaluated through the 72 hours time period of viability assay. Briefly, the candidate cell line ware plated in 96 well plate at the following density of cells respectively. […] DMSO solvent without compound served as a control and final DMSO concentration less than 0.1%. After 72 hours of incubation at 37° C., 5% CO2 incubator, cells were analyzed for the viability using the CellTiter-Glo Luminescent Cell Viability Assay (Promega, Cat #G7570). All viability assays were performed in duplicate and Luminescence was read using an Envision (Perkin Elmer, USA). Data was analyzed using XLfit software.

IC50 [µM]	Structure (SMILES)
1 to 10	CC(C)c1cnn2c(NCc3ccccc3-n3cccn3)nc(Nc3cccc(OC4CCNC4)c3)nc12 (racemic) [Compound 164]
< 1	CC(C)c1cnn2c(NCc3ccccc3-n3cc4cc(NS(C)(=O)=O)ccc4n3)nc(N3CCC(N)CC3)nc12 [Compound 158]

Target: T2, CDK5/p25 (Homo sapiens, UniProt Q00535)
T2 construct: purchased Invitrogen PR8543B
T2 sequence (Q00535 whole entry): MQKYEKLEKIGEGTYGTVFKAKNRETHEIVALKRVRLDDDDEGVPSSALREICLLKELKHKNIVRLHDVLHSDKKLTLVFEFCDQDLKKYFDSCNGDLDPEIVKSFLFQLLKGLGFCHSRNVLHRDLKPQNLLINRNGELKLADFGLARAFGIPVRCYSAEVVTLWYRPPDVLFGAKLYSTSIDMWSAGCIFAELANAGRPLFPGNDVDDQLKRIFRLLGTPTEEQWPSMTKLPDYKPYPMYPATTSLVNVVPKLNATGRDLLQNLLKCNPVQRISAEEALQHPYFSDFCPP
T2 sequence (Q15078 99-307 partner limits assumed): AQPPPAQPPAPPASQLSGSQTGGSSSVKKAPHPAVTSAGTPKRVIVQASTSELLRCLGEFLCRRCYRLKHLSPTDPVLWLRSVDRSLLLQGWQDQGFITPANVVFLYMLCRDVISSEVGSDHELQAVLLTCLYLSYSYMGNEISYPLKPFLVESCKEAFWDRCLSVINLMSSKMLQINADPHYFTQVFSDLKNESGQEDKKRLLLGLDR
Experiment: Enzymatic assay for CDK5 (FRET based LANCE Ultra kinase assay)
Format: biochemical
Details: read-out: CDK5 enzymatic activity (IC50 range)
Experimental: as §1
(§4) Inhibition activity of the respective compound on CDK kinase under Km value of ATP was tested in FRET based The LANCE® Ultra kinase assay (Perkin Elmer), which uses a ULight™-labeled peptide substrate and an appropriate Europium-labeled anti-phospho-antibody. Test compounds were made with DMSO solutions, and then 4-fold serial dilutions for 8 doses were prepared using automated liquid handler (POD810, LABCYTE) and 80 nL/well of diluted compound solutions were added into the 384-well plates (Greiner, Cat #784075). And then 68 nM of ULight-MBP peptide (Perkin Elmer, Cat #TRF0109-M) and 5 ul/well of ATP (Sigma, Cat #A7699) were added to the plate. After 1 min centrifugation at 1000 rpm, Purified CDKs/Cyclin complex were added following concentrations respectively. 24 uM for CDK1/Cyclin B (Invitrogen, Cat #PR4768C), 22 uM for CDK2/Cyclin A (Invitrogen, Cat #PV6290), 10 uM for CDK5/p25 (Invitrogen, Cat #PR8543B) and […] for CDK7/Cyclin H/MNAT1 (Invitrogen, Cat #PR6749B) were added to the each corresponding plate for CDK1, CDK2, CDK5 and CDK7. Incubate at 23° C. for 60 min and then Eu-labeled anti-phospho-Myelin Basic Protein (PE, Cat #TRF0201-M) and EDTA (Invitrogen, Cat #15575038) mixture in Lance Detection Buffer (Perkin Elmer, Cat #CR97100) was added in each well. After additional incubation at 23° C. for 60 min, test articles were measured the fluorescence using Envision leader (Perkin Elmer, USA) [Laser as excitation light; […] as the first and the second emission filter]. Data was analyzed using XL Fit software.

IC50 [µM]	Structure (SMILES)
> 1	CC(C)c1cnn2c(NCc3ccccc3-n3cccn3)nc(Nc3cccc(OC4CCNC4)c3)nc12 (racemic) [Compound 164]
< 0.1	CC(C)c1cnn2c(NCc3cccc4ccncc34)nc(N3CCC(N)CC3)nc12 [Compound 31]
< 0.1	CC(C)c1cnn2c(NCc3ccccc3-n3cc4cc(NS(C)(=O)=O)ccc4n3)nc(N3CCC(N)CC3)nc12 [Compound 158]

Target: T3, CDK1/Cyclin B (Homo sapiens, UniProt P06493)
T3 construct: purchased Invitrogen PR4768C
T3 sequence (P06493 whole entry): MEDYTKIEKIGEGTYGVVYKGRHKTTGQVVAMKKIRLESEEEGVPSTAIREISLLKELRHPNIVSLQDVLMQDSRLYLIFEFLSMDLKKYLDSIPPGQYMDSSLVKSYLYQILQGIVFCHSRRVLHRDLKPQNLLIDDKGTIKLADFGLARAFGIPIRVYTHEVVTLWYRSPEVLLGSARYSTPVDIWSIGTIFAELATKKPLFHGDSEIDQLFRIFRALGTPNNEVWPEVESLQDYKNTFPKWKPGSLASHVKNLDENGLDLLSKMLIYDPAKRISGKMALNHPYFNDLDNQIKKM
T3 sequence (P14635 whole entry partner): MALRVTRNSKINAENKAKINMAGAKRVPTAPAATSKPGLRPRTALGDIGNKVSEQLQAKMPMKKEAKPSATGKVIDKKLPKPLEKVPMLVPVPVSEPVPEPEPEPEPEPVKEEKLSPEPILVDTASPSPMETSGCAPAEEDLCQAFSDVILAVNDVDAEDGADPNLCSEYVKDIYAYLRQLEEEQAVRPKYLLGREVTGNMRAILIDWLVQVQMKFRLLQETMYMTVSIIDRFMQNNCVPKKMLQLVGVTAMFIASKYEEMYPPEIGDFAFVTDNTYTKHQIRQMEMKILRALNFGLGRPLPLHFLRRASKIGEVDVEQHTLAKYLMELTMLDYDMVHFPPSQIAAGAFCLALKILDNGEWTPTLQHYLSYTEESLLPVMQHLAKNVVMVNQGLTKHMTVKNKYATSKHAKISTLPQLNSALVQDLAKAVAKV
Experiment: Enzymatic assay for CDK1 (FRET based LANCE Ultra kinase assay)
Format: biochemical
Details: read-out: CDK1 enzymatic activity (IC50 range)
Experimental: as §1, §4

IC50 [µM]	Structure (SMILES)
> 1	CC(C)c1cnn2c(NCc3ccccc3-n3cccn3)nc(Nc3cccc(OC4CCNC4)c3)nc12 (racemic) [Compound 164]
0.1 to 1	CC(C)c1cnn2c(NCc3cccc4ccncc34)nc(N3CCC(N)CC3)nc12 [Compound 31]
0.1 to 1	CC(C)c1cnn2c(NCc3ccccc3-n3cc4cc(NS(C)(=O)=O)ccc4n3)nc(N3CCC(N)CC3)nc12 [Compound 158]

Test system: H460
Experiment: Cellular H460 viability assay (CellTiter-Glo, 72 hours)
Format: cell-based
Details: Homo sapiens, NCI-H460
Experimental: as §2, §3

IC50 [µM]	Structure (SMILES)
< 1	CC(C)c1cnn2c(NCc3cccc4ccncc34)nc(N3CCC(N)CC3)nc12 [Compound 31]

Target: T4, CDK2/Cyclin A (Homo sapiens, UniProt P24941)
T4 construct: purchased Invitrogen PV6290
Experiment: Enzymatic assay for CDK2 (FRET based LANCE Ultra kinase assay)
Format: biochemical
Details: read-out: CDK2 enzymatic activity (IC50 range)
Experimental: as §1, §4

IC50 [µM]	Structure (SMILES)
> 1	CC(C)c1cnn2c(NCc3ccccc3-n3cccn3)nc(Nc3cccc(OC4CCNC4)c3)nc12 (racemic) [Compound 164]
< 0.1	CC(C)c1cnn2c(NCc3cccc4ccncc34)nc(N3CCC(N)CC3)nc12 [Compound 31]
0.1 to 1	CC(C)c1cnn2c(NCc3ccccc3-n3cc4cc(NS(C)(=O)=O)ccc4n3)nc(N3CCC(N)CC3)nc12 [Compound 158]

Test system: HCT116
Experiment: Cellular HCT116 viability assay (CellTiter-Glo, 72 hours)
Format: cell-based
Details: Homo sapiens, HCT-116
Experimental: as §2, §3

IC50 [µM]	Structure (SMILES)
< 1	CC(C)c1cnn2c(NCc3cccc4ccncc34)nc(N3CCC(N)CC3)nc12 [Compound 31]
< 1	CC(C)c1cnn2c(NCc3ccccc3-n3cc4cc(NS(C)(=O)=O)ccc4n3)nc(N3CCC(N)CC3)nc12 [Compound 158]
